Laboratory results published in publication PMC5799093, “Proceedings of Réanimation 2018, the French Intensive Care Society International Congress” (Annals of Intensive Care, 2018).

Columns and labels:
[1] = Beta-lactam plasma concentrations in children with severe sepsis or septic shock (HPLC); settings: current standard dosing
[2] = Piperacillin-tazobactam 16 g day continuous infusion, PK PD target attainment; type: in vivo, critically ill patients; settings: MIC 16 mg L^−1 for piperacillin, n = 60
[3] = tested on: carbapenemase-producing Enterobacteriaceae; test: Antibiotic susceptibility of Enterobacteriaceae with decreased susceptibility to carbapenems; type: cell-based; settings: for resistant rate: CA-SFM 2015
[4] = tested on: microorganisms of post-operative pneumonia; test: Susceptibility of microorganisms cultured in severe post-operative pneumonia (P-213); type: cell-based; settings: 66 patients with significant culture
Description: Patients and methods: All patients with severe POP occurring within 30 days after lung resection between January 2013 and December 2015 were included. We collected data on clinical presentation, results of microbiological investigations, antibiotic regimen and outcomes. The quality of antibiotic use was assessed using indicators previously validated in the literature.

[5] = MOTREM phase I first-in-human single ascending dose trial, safety and pharmacokinetics; settings: in vivo
Description: (§1) Patients and methods: Twenty-seven healthy male volunteers have been included in this clinical trial. The product was administered by continuous intravenous infusion (CIV). A single ascending dose design with 8 dose levels was used. […] All volunteers were carefully monitored. Before escalation to the next dose level, safety and PK data of the previous dose level were reviewed by a safety review committee.

[6] = tested on: TREM-1 signalling pathway; settings: in vivo; cited from earlier work
Description: Introduction: MOTREM is the clinically formulated synthetic peptide (LR12) that is currently being developed for the treatment of sepsis and for the prevention of sequelae after acute myocardial infarction. […] Its pharmacological action occurs via the Triggering Receptor Expressed on Myeloid Cells-1 (TREM-1) signalling pathway.

clinical = settings: male, human, in vivo, iv
Description: as §1

[7] = 2 g day intermittent infusion, trough concentrations, theoretical target MIC 2 mg/L, 21 patients, 63 samples
[8] = Fatal carbon monoxide intoxication, forensic series (P-181); settings: 29 fatal cases, toxicological analysis at autopsy
P. aeruginosa = test: Antibiotic resistance of P. aeruginosa (P-147); type: cell-based
Pseudomonas aeruginosa [9] = test: Disk diffusion susceptibility of P. aeruginosa isolated from burned patients (P-48); type: cell-based; settings: for strains resistant: 485 strains from burned patients 2012-2015, disk diffusion, FSM breakpoints
[10] = tested on: Extended spectrum betalactamase producing Enterobacteriaceae; test: Antibiotic resistance of ESBL producing Enterobacteriaceae (P-147); type: cell-based; settings: isolates 2015 and 2016
Acinetobacter baumanni = test: Antibiotic resistance of Acinetobacter baumanni (P-147); type: cell-based; settings: imipenem resistant isolates
[11] = Acute amitriptylin and clomipramine poisonings in the ICU, clinical features and pharmacokinetics
[12] = comparison value; cited from earlier work
GABA-A receptors = test: PET imaging with 11C-flumazenil, interaction of tramadol with GABA-A receptors; type: binding; settings: 11C-flumazenil fixation in the rat brain
[13] = Eight of 49 patients
Pseudomonas aeruginosa [14] = test: Resistance of nosocomial infection isolates: Pseudomonas aeruginosa (P-222); type: cell-based; settings: n = 14 isolates, 2016
Description: Patients and methods: This was a retrospective study conducted within a 22-bed medical ICU of a Tunisian teaching hospital (301 beds) carried from January 1st to December 31, 2016. We recorded demographic patients’ characteristics which ICU’s stay was complicated with at least one NI. Then we described pathogens and microbiological specificities of NI.

[15] = tested on: Pseudomonas aeruginosa (PA); test: Antibiotic resistance of Pseudomonas aeruginosa before/after antibiotic stewardship (P-214); type: cell-based
[16] = Caffeine in bronchiolitis related apnea, PICU retrospective study (P-118); settings: 49 treated of 54 infants; loading 20 mg kg, 5 mg kg day maintenance
[17] = Heparin-induced thrombocytopenia in ICU (anti-PF4 antibody test); type: in vivo; settings: patients hospitalized in ICU
Description: Patients and methods: This was a retrospective, monocentric, descriptive and evaluative study conducted in our intensive care unit (ICU) over a period of 4 years 6 months. An anti-PF4 antibody test was performed in patients who developed thrombocytopenia or a 30% drop in their initial platelet kinetics and the clinical picture.

[18] = CVVHF filter lifespan, LMWH versus regional citrate anticoagulation (P-97); design: species or system human; settings: in vivo
Description: Patients and methods: A monocentric retrospective study was led from January to October 2016. All the CVVHF sessions during this period were included. Prismaflex© monitors (Hospal) were used. Practioners were free to choose between citrate or LMWH defining 2 groups. We aimed a post filter ionized calcemia between 0.25 to 0.5 mmol/L in citrate group + and a post filter anti Xa activity between 0.2 to 0.5 UI/mL in LMWH.

anti-Xa activity = test: Population pharmacokinetics of enoxaparin (anti-Xa activity) in pediatric liver transplantation (P-170); type: in vivo, human (children)
Description: Patients and methods: Clinical, biological and kinetic data were retrospectively collected in a single Pediatric Intensive Care Unit center from January 2013 to July 2015. We described an enoxaparin PK model in 22 children the first week following the LT. Anti-Xa activity time-courses were analyzed using a non linear mixed effects approach with Monolix version 2016R.

[19] = Major arrhythmia recurrence after resuscitated ischemic VF/VT, PROCAT registry (P-86); type: in vivo, human; settings: multivariate analysis, 256 patients, 104 treated; p = 0.870
Description: Patients and methods: The PROCAT registry captures all data from patients admitted in a tertiary hospital center after a resuscitated cardiac arrest (CA). We selected patients with an initial VF VT caused by an acute coronary syndrome (ACS) and who were successfully treated with early percutaneous coronary intervention (PCI) on admission. The primary endpoint was the recurrence of major arrhythmia between ICU admission and ICU discharge. All arrhythmias resulting in CA recurrence and or severe arterial hypotension requiring infusion of vasopressors were classified as major arrhythmias. Multivariate logistic regression identified factors associated with the occurrence of major arrhythmias.

eclampsia = test: Eclampsia survey, recurrence under magnesium sulfate prevention; type: in vivo, patients; settings: 83 women
Description: Patients and methods: We conducted a retrospective survey in a third level Tunisian university teaching hospital from January 2004 to December 2016. We included all patients with the diagnosis of eclampsia.

[20] = New-generation anticonvulsive drug poisoning in ICU with pharmacokinetics (P-146); type: in vivo, human; settings: membrane-stabilizing effects resulting in acute cardiac failure
Description: Pharmacokinetics modeling and parameters were obtained using WinNonlin v.5.1 software.

[21] = critically ill patients, 25 mg kg dose; ref 1 (de Montmollin et al. 2014); cited from earlier work
Description: Introduction: Amikacin infusion requires to target a peak serum concentration (Cmax) 8–10 times the minimal inhibitory concentration, corresponding to a Cmax at 60–80 mg L^−1 for the least susceptible bacteria. […] Membrane sequestration, alteration of the volume of distribution and lack of data in this population make drugs pharmacokinetics (PK) on ECMO challenging. Our study aimed to assess the prevalence of insufficient Amikacin Cmax in critically ill patients on ECMO and to identify re ...

Escherichia-coli = test: Resistance in nosocomial urinary tract infection: Escherichia-coli (P-219); settings: January 2010 - June 2014
[22] = Amikacin peak serum concentration (Cmax) after loading dose in patients on ECMO; type: in vivo, adult patients; settings: IV loading dose 25 mg kg total body weight; Cmax 30 min after end of infusion; VA- or VV-ECMO; n = 106
[23] = design: method as in Taccone in 2010; settings: dosages of 25 mg kg; ref Taccone in 2010; cited from earlier work
Pseudomonas = settings: January 2010 - June 2014
[24] = not given; remark: listed apart in the source
[25] = Amikacin peak serum concentration (Cmax) in ICU patients with septic shock/severe sepsis (P-52); type: in vivo, human
[26] = human, in vivo
Description: Patients and methods: This study was conducted in burn center in Tunis. Patients with documented and or suspected infections were included. Were excluded pregnant women and patients with renal failure. […] For the 2nd, 3rd, 4th and 5th day, blood samples were taken before the infusion (T0), at the end (T1) and 30 min after the end of it (T2).

Acinetobacter baumannii = settings: January 2010 - June 2014

## piperacillin-tazobactam
[1]
  patients with insufficient plasma concentration: 77%
[2]
  rate of empirical target non-attainment: 17%
[3]
  resistant rate: 87%
[4]
  patients whose microorganisms were sensitive: 86%

## CSCC[C@H](NC(=O)[C@H](CS)NC(=O)CNC(=O)[C@H](Cc1ccc(O)cc1)NC(=O)[C@H](CCC(=O)O)NC(=O)CNC(=O)[C@H](C)NC(=O)[C@H](CC(=O)O)NC(=O)[C@H](CCC(=O)O)NC(=O)[C@H](CCC(=O)O)NC(=O)[C@H](CCC(N)=O)NC(=O)[C@@H](N)CC(C)C)C(N)=O [MOTREM]
[5]
  PK linearity: linear
[6]
  GLP toxicology: safe and well tolerated in GLP toxicology studies
clinical
  clearance: 110 mL/min/kg
27 healthy male volunteers
  product-related adverse events: No product-related adverse events were reported
Continuous IV infusion, healthy male volunteers
  effective half-life: about 3 min
Up to 5mg/kg 15-min loading dose and 6 mg kg h for 7.75 hours
  safety and tolerability: safe and well tolerated up to the highest dose tested

## CO/N=C(\C(=O)N[C@@H]1C(=O)N2C(C(=O)O)=C(CSc3nc(=O)c(=O)[nH]n3C)CS[C@H]12)c1csc(N)n1 [ceftriaxone]
[7]
  rate of PK/PD target non-attainment: 62%

## [C-]#[O+] [carbon monoxide]
[8]
  mean HbCO level: 51.59%

## colistin
P. aeruginosa; Ceftazidim resistant isolates
  sensitivity: all bacterial stocks were sensitive
Pseudomonas aeruginosa [9]; 485 strains from burned patients, disk diffusion
  strains susceptible: 100%
[3]; colistin excepting with Proteus
  susceptibility: 98%
[10]
  sensitivity: all bacterial stocks were sensitive
Acinetobacter baumanni
  sensitivity: all bacterial stocks were sensitive

## CN(C)CCC=C1c2ccccc2CCc2ccccc21 [AMI, Amitriptylin]
[11]; median, AMI [0.4 + 1.4], dose 1.5 g, CLO [0.5 + 1.4], dose 3.0 g
  plasma concentration: 700 ng/mL
[11]; non-compartmental analysis
  elimination half-life in overdose: 43 h
[11]; p < 0.0001
  coma depth, AMI vs CLO: significantly deeper coma
[11]; p = 0.02
  seizures, AMI vs CLO: fewer seizures than CLO
[12]
  elimination half-life in pharmacological conditions: 24 h

## COc1cccc(C2(O)CCCCC2CN(C)C)c1 (stereo not drawn) [tramadol]
GABA-A receptors
  interaction with GABA-A receptors: molecular interaction between tramadol and γ-aminobutyric acid (GABA)-A receptors not related to a competitive mechanism

## C[C@H]1O[C@@H](O[C@H]2[C@@H](O)C[C@H](O[C@H]3[C@@H](O)C[C@H](O[C@H]4CC[C@@]5(C)[C@H](CC[C@@H]6[C@@H]5C[C@@H](O)[C@]5(C)[C@@H](C7=CC(=O)OC7)CC[C@]65O)C4)O[C@@H]3C)O[C@@H]2C)C[C@H](O)[C@@H]1O [digoxin]
[13]
  patients who died in the ICU: 16%

## CC(C)(O/N=C(\C(=O)N[C@@H]1C(=O)N2C(C(=O)[O-])=C(C[n+]3ccccc3)CS[C@H]12)c1csc(N)n1)C(=O)O [ceftazidim]
P. aeruginosa; isolates 2015 and 2016
  resistance: 10%
Pseudomonas aeruginosa [14]
  resistance: 33.3%
Pseudomonas aeruginosa [9]
  strains resistant: 21%
[15]; period 2007–2010 (P1)
  antibiotic resistance of PA: 42%
[15]; period 2011–2014 (P2), after antibiotic stewardship, p < 0.01
  antibiotic resistance of PA: 11%

## Cn1c(=O)c2c(ncn2C)n(C)c1=O [caffeine]
[16]
  potential caffeine adverse effects between groups or pre and post-caffeine administration: no difference

## heparin
[17]
  incidence of HIT: 1.71%

## enoxaparin
[18]
  serious side effect, especially hemorrhage: No serious side effect
anti-Xa activity; 22 children, first week after LT, one-compartment, scaled to 70 kg, Monolix
  typical clearance (CLTYP): 1.26 L/h
anti-Xa activity; 22 children, scaled to 70 kg
  typical volume of distribution (VTYP): 16.9 L
anti-Xa activity; standard 50 IU kg 12 h, 7 children
  children who never attained the target range of anti-Xa activity 0.2 to 0.4 IU mL: 32%

## CCCCc1oc2ccccc2c1C(=O)c1cc(I)c(OCCN(CC)CC)c(I)c1 [amiodarone]
[19]
  OR for recurrences of major arrhythmias with prophylactic AA treatment: 0.9 [0.3–3.1]

## O=S(=O)([O-])[O-].[Mg+2] [magnesium sulfate]
eclampsia
  recurrence of eclampsia despite prevention: 6%

## COC[C@@H](NC(C)=O)C(=O)NCc1ccccc1 [lancosamide, lacosamide]
[20]
  outcome: died

## NCC[C@H](O)C(=O)N[C@@H]1C[C@H](N)[C@@H](O[C@H]2O[C@H](CN)[C@@H](O)[C@H](O)[C@H]2O)[C@H](O)[C@H]1O[C@H]1O[C@H](CO)[C@@H](O)[C@H](N)[C@H]1O [Amikacin]
[21]
  patients not attaining target Cmax 60–80 mg L^−1: 33%
Escherichia-coli
  resistance: without resistance
[22]
  Cmax < 60 mg L^−1 (proportion of patients): 39%
[23]
  peaks above 64 mg l: 70%
Pseudomonas
  resistant: 44%
Pseudomonas aeruginosa [9]
  strains resistant: 62%
[24]; mean dose 26 mg kg day, 1 h infusion, 18 burned patients
  cases reaching a peak between 60 and 80 μg/ml: 55%
[24]; range (0.28–1.32)
  total volume of distribution: 0.55 L·kg
[24]; range [1.42–8 h]
  half-life time (t1 2): 4.70 h
[25]; median dosage 22.5 mg kg, initial injection, 191 patients
  median Cmax: 72.1 mg·L
[25]; of 191 patients
  patients with Cmax greater than 80 mg l: 53 patients
  patients with Cmax less than 64 mg l: 77 patients
[3]
  resistant rate: 57%
[26]
  amikacin clearance: 6.4 L·h
  correlation between Cpeak at day 1 and Cpeak at day 5 (r): 0.45
Acinetobacter baumannii
  resistant: 85%
